Source: paper PMC4490117 (Pharmaceutical research, 2015)

Experiments:
[1] = tested on: subcutaneous flank SKOV-3 tumors; test: T1-weighted MRI of tumor accumulation in tumor-bearing mice; type: in vivo, nu/nu mice; settings: IV, gadolinium 0.072 mmoles/kg, SKOV-3 tumor-bearing mice, n=3
[2] = T1 relaxation time by MRI phantom, 4.7 Tesla; type: physicochemical; settings: same gadolinium concentration, Avg ± SD, n=3

- time to clear from the tumor (T1-weighted images) ([1]; Figure 4A): ≤ 6 h
- time to clear from tumor tissues (relative T1 signal, % tumor signal vs time) ([1]; Figure 4B): ≤ 5 h
- T1 Relaxivity [2]: 22 ms
SMILES: CNC[C@H](O)[C@@H](O)[C@H](O)[C@H](O)CO.CNC[C@H](O)[C@@H](O)[C@H](O)[C@H](O)CO.O=C([O-])CN(CCN(CC(=O)[O-])CC(=O)O)CCN(CC(=O)[O-])CC(=O)O.[Gd+3] [Magnevist]
